Columns and labels:
[1] = test system: β-amyloid protein (Aβ) secreted by E35 cells (H4 cells with APP751 gene); test: Screening system using E35 cells for inhibition of production/secretion of β-amyloid protein (sandwich ELISA of Aβ in culture medium); type: cell-based, human; details: Homo sapiens, 24 hours with compound, Aβ in culture supernatant by ELISA, read-out: Inhibitory Activity for Production of A(EC50)
Procedure: The activity of the compound inhibiting β-amyloid protein production was measured on E35 cells prepared by introducing APP751 gene, a gene of a human wild type β-amyloid protein precursor protein, to human glioma cells (H4 cells), by quantifying the amount of β-amyloid protein (Aβ) secreted to the culture medium by means of a sandwich type Enzyme-Linked Immunosorbent Assay (ELISA) method.
That is, E35 cells inoculated on a 96-well plate were cultured in an incubator at 37° C. which was maintained at equilibrium with 5% carbon dioxide, using Dulbecco's Modified Eagle's Medium containing inactivated 10% fetal bovine serum as the culture medium. After 24 hours from the inoculation, a test compound dissolved in a DMSO solution was added. The DMSO solution of the test compound was prepared at a concentration of 2000 times of the final concentration, such that the DMSO concentration in the culture medium would be 0.05%. After culturing for another 24 hours, the culture supernatant was recovered, and this was added to a 96-well plate for ELISA onto which a monoclonal antibody against Aβ, 25-1, was solid-phased. The plate was incubated at 4° C. for 16 to 20 hours. The plate was washed with phosphate buffer solution (pH 7.4), and then a biotinylated monoclonal antibody against Aβ, MA32-40, was added thereto. The plate was left to stand at 4° C. for 2 hours. The plate was washed again with phosphate buffer solution, and then alkaline phosphatase-conjugated streptavidin was added to conjugate streptavidin to biotin. Subsequently, the plate was washed with phosphate buffer solution. To this, Blue Phos (Kirkegaard & Perry Laboratories, Inc.) was added. After incubating the plate for an appropriate time, the reaction was terminated with an acid, and the absorbance for each well was measured. The amount of Aβ contained in the culture supernatant was determined from a calibration curve which was produced separately, and the amount was compared with that of control cells to which the compound was not added. Thus, the concentration at which 50% of the Aβ production is inhibited (EC50 value) was calculated. In addition, the 25-1 antibody and MA32-40 antibody used in ELISA were mouse monoclonal antibodies derived from the hybridoma cell clone lines, which were each produced and selected according to a standard method using Aβ25-35 and Aβ1-8 as antigens, respectively, and which specifically recognize their respective antigens. […]
The scores indicate ++++ for the case where EC50 was 5 nM or less; +++ for the case where EC50 was 5 to 50 nM; ++ for the case where EC50 was 50 to 500 nM; and + for the case where EC50 was 500 nM to 5 μM.

melting point	EC50 [1]	Structure (SMILES)
208 to 209 °C	–	Cc1cc(C(=O)O)ncc1C(c1cc(F)ccc1F)S(=O)(=O)c1ccc(Cl)cc1 (centres unmarked) [Example 3, 5-[[(4-Chlorophenyl)sulfonyl](2,5-difluorophenyl)methyl]-4-methylpyridine-2-carboxylic acid]
–	≤ 5 nM	Cc1cc(C(N)=O)ncc1C(c1cc(F)ccc1F)S(=O)(=O)c1ccc(F)cc1 (centres unmarked) [Example 15, 5-[(2,5-Difluorophenyl)[(4-fluorophenyl)sulfonyl]methyl]-4-methylpyridine-2-carboxamide]
–	5 to 50 nM	Cc1cc(C(N)=O)ncc1C(c1cc(F)ccc1F)S(=O)(=O)c1ccc(C(F)(F)F)nc1 (centres unmarked) [Example 32, 5-[(2,5-Difluorophenyl)[[6-(trifluoromethyl)pyridin-3-yl]sulfonyl]methyl]-4-methylpyridine-2-carboxamide]
–	5 to 50 nM	Cc1cc(C(=O)N(C)C)ncc1C(c1c(F)ccc(F)c1F)S(=O)(=O)c1ccc(F)cc1 (centres unmarked) [Example 36A, 5-[[(4-Fluorophenyl)sulfonyl](2,3,6-trifluorophenyl)methyl]-N,N,4-trimethylpyridine-2-carboxamide]
–	5 to 50 nM	Cc1cc(C(N)=O)ncc1C(c1c(F)ccc(F)c1F)[S+]([O-])c1ccc(F)cc1 (centres unmarked) [Example 38, 5-[[(4-Fluorophenyl)sulfinyl](2,3,6-trifluorophenyl)methyl]-4-methylpyridine-2-carboxamide]
–	≤ 5 nM	Cc1cc(C(N)=O)ncc1C(c1c(F)ccc(F)c1F)S(=O)(=O)c1ccc(F)cc1 (centres unmarked) [Example 39, 5-[[(4-Fluorophenyl)sulfonyl](2,3,6-trifluorophenyl)methyl]-4-methylpyridine-2-carboxamide]
219 to 221 °C	–	Cc1cc(C(=O)N2CC(O)C2)ncc1C(c1cc(F)ccc1F)S(=O)(=O)c1ccc(F)cc1 (centres unmarked) [Example 88, 1-[[5-[(2,5-Difluorophenyl)[(4-fluorophenyl)sulfonyl]methyl]-4-methylpyridin-2-yl]carbonyl]azetidin-3-ol]
151 to 153 °C	–	CCOC(=O)c1cc(C)c(C(c2cc(F)ccc2F)S(=O)(=O)c2ccc(F)cc2)cn1 (centres unmarked) [Example 91, Diethyl 5-[(2,5-difluorophenyl)[(4-fluorophenyl)sulfonyl]methyl]-4-methylpyridine-2-carboxylic acid]
–	≤ 5 nM	Cc1cc(C(N)=O)ncc1C(c1c(F)ccc(F)c1F)S(=O)(=O)c1ccccc1 (centres unmarked) [Example 105, 4-Methyl-5-[(phenylsulfonyl)(2,3,6-trifluorophenyl)methyl]pyridine-2-carboxamide]
182 to 183 °C	–	CC(=O)NC(=O)c1cc(C)c(C(c2cc(F)ccc2F)S(=O)(=O)c2ccc(F)cc2)cn1 (centres unmarked) [Example 107, N-acetyl-5-[(2,5-difluorophenyl)[(4-fluorophenyl)sulfonyl]methyl]-4-methylpyridine-2-carboxamide]

The next lines start with the molecule.

Structure (SMILES)	melting point	EC50 [1]
CNC(=O)c1cc(C)c(C(c2cc(F)ccc2F)[S+]([O-])c2ccc(F)cc2)cn1 (centres unmarked) [Example 21, 5-[(2,5-Difluorophenyl)[(4-fluorophenyl)sulfinyl]methyl]-N,4-dimethylpyridine-2-carboxamide]	–	5 to 50 nM
Cc1cc(C(N)=O)ncc1C(c1cc(F)ccc1F)[S+]([O-])c1ccc(F)cc1 (centres unmarked) [Example 24, 5-[(2,5-Difluorophenyl) [(4-fluorophenyl)sulfinyl]methyl]-4-methylpyridine-2-carboxamide]	–	5 to 50 nM
Cc1cc(C(=O)N(C)C)ncc1C(c1cc(F)ccc1F)S(=O)(=O)c1ccc(C(F)(F)F)nc1 (centres unmarked) [Example 28A, 5-[(2,5-Difluorophenyl) [[6-(trifluoromethyl)pyridin-3-yl]sulfonyl]methyl]-N,N,4-trimethylpyridine-2-carboxamide]	–	500 to 5000 nM
Cc1cc(C(=O)N(C)C)ncc1C(c1cc(F)ccc1F)[S+]([O-])c1ccc(C(F)(F)F)nc1 (centres unmarked) [Example 28B, 5-[(2,5-difluorophenyl)[[6-(trifluoromethyl)pyridin-3-yl]sulfinyl]methyl]-N,N,4-trimethylpyridine-2-carboxamide]	–	500 to 5000 nM
Cc1cc(C(=O)NCCO)ncc1C(c1cc(F)ccc1F)S(=O)(=O)c1ccc(C(F)(F)F)nc1 (centres unmarked) [Example 30, 5-[(2,5-Difluorophenyl) [[6-(trifluoromethyl)pyridin-3-yl]sulfonyl]methyl]-N-(2-hydroxyethyl)-4-methylpyridine-2-carboxamide]	–	≤ 5 nM
Cc1cc(C(=O)N(C)C)ncc1C(c1c(F)ccc(F)c1F)[S+]([O-])c1ccc(F)cc1 (centres unmarked) [Example 36B, 5-[[(4-fluorophenyl)sulfinyl](2,3,6-trifluorophenyl)methyl]-N,N,4-trimethylpyridine-2-carboxamide]	–	500 to 5000 nM
COc1ccc(S(=O)(=O)C(c2cnc(C(=O)O)cc2C)c2cc(F)ccc2F)cc1 (centres unmarked) [Example 42, 5-[(2,5-Difluorophenyl)[(4-methoxyphenyl)sulfonyl]methyl]-4-methylpyridine-2-carboxylic acid]	194 to 195 °C	–
COc1ccc(S(=O)(=O)C(c2cnc(C(=O)O)cc2C)c2cc(F)ccc2F)cc1F (centres unmarked) [Example 46, 5-[(2,5-Difluorophenyl)[(3-fluoro-4-methoxyphenyl)sulfonyl]methyl]-4-methylpyridine-2-carboxylic acid]	196 to 197 °C	–
Cc1cc(C(=O)NCCO)ncc1C(c1cc(F)ccc1F)S(=O)(=O)c1ccc(C(F)(F)F)cn1 (centres unmarked) [Example 55, 5-[(2,5-Difluorophenyl)[[5-(trifluoromethyl)pyridin-2-yl]sulfonyl]methyl]-N-(2-hydroxyethyl)-4-methylpyridine-2-carboxamide]	–	50 to 500 nM
Cc1cc(C(=O)NCCO)ncc1C(c1cc(F)ccc1F)S(=O)(=O)c1ccccc1 (centres unmarked) [Example 59, 5-[(2,5-Difluorophenyl)(phenylsulfonyl)methyl]-N-(2-hydroxyethyl)-4-methylpyridine-2-carboxamide]	–	5 to 50 nM
Cc1ccc(S(=O)(=O)C(c2cnc(C(=O)NCCO)cc2C)c2cc(F)ccc2F)cc1 (centres unmarked) [Example 63, 5-[(2,5-Difluorophenyl)[(4-methylphenyl)sulfonyl]methyl]-N-(2-hydroxyethyl)-4-methylpyridine-2-carboxamide]	–	≤ 5 nM
Cc1cc(S(=O)(=O)C(c2cnc(C(=O)NCCO)cc2C)c2cc(F)ccc2F)ccc1Cl (centres unmarked) [Example 67, 5-[[(4-Chloro-3-methylphenyl)sulfonyl](2,5-difluorophenyl)methyl]-N-(2-hydroxyethyl)-4-methylpyridine-2-carboxamide]	–	≤ 5 nM
Cc1cc(S(=O)(=O)C(c2cnc(C(=O)NCCO)cc2C)c2cc(F)ccc2F)ccc1F (centres unmarked) [Example 71, 5-[(2,5-Difluorophenyl)[(4-fluoro-3-methylphenyl)sulfonyl]methyl]-N-(2-hydroxyethyl)-4-methylpyridine-2-carboxamide]	–	5 to 50 nM
Cc1cc(C(=O)NCCC(=O)O)ncc1C(c1cc(F)ccc1F)S(=O)(=O)c1ccc(F)cc1 (stereo not drawn) [Example 81, N-[[5-[(2,5-difluorophenyl)[(4-fluorophenyl)sulfonyl]methyl]-4-methylpyridin-2-yl]carbonyl]-β-alanine]	223 to 226 °C	–
CC(=O)NCCNC(=O)c1cc(C)c(C(c2cc(F)ccc2F)S(=O)(=O)c2ccc(F)cc2)cn1 (centres unmarked) [Example 83, N-[2-(acetylamino)ethyl]-5-[(2,5-difluorophenyl)[(4-fluorophenyl)sulfonyl]methyl]-4-methylpyridine-2-carboxamide]	–	≤ 5 nM
CC(=O)OCNC(=O)c1cc(C)c(C(c2cc(F)ccc2F)S(=O)(=O)c2ccc(F)cc2)cn1 (centres unmarked) [Example 86, [[[5-[(2,5-Difluorophenyl)(4-fluorophenylsulfonyl)methyl]-4-methylpyridin-2-yl]carbonyl]amino]methyl acetate]	111 to 113 °C	–
Cc1cc(C(=S)N(C)C)ncc1C(c1cc(F)ccc1F)S(=O)(=O)c1ccc(F)cc1 (centres unmarked) [Example 92, 5-[(2,5-Difluorophenyl)[(4-fluorophenyl)sulfonyl]methyl]-N,N,4-trimethylpyridine-2-carbothioamide]	161 to 164 °C	–
Cc1cc(C(=O)NCCO)ncc1C(c1cc(F)ccc1F)S(=O)(=O)c1cc(F)cc(F)c1 (centres unmarked) [Example 100, 5-[(2,5-Difluorophenyl)[(3,5-difluorophenyl)sulfonyl]methyl]-N-(2-hydroxyethyl)-4-methylpyridine-2-carboxamide]	82 to 84 °C	–
Cc1cc(C(=O)NCOC(=O)CO)ncc1C(c1cc(F)ccc1F)S(=O)(=O)c1ccc(F)cc1 (centres unmarked) [Example 109, [[[5-[(2,5-Difluorophenyl)[(4-fluorophenyl)sulfonyl]methyl]-4-methylpyridin-2-yl]carbonyl]amino]methyl hydroxyacetate]	84 °C	–
